Data: the supplement of paper PMC13380429

Legend:
A549-ACE2 [1] = assay: drug-induced phospholipidosis relative to tamoxifen; higher = more phospholipidosis
[2] = test system: A549-ACE2 infected with SARS-CoV-2; assay: cell count relative to DMSO; higher = less toxic; conditions: 24 h
Caco-2 [3] = assay: relative viability EC50 (midpoint between 100% and the lowest measured viability); higher = less toxic; conditions: 72 h
Vero E6 [4] = assay: as above; conditions: 72 h
HepG2 [5] = assay: as above; conditions: 72 h
U2OS [6] = assay: as above; conditions: 72 h
Calu-3 [7] = assay: as above; conditions: 72 h
Caco-2 [8] = assay: drug sensitivity score (DSS) for viability; higher = more toxic; extreme values may be limits of the assay; conditions: 72 h
Vero E6 [9] = assay: as above; conditions: 72 h
HepG2 [10] = assay: as above; conditions: 72 h
U2OS [11] = assay: as above; conditions: 72 h
Calu-3 [12] = assay: as above; conditions: 72 h
[13] = test system: A549-ACE2 infected with SARS-CoV-2; assay: SARS-CoV-2 infection rate relative to DMSO; higher = more infection; conditions: 24 h
Caco-2 [14] = assay: cell viability relative to DMSO; higher = less toxic; conditions: 72 h
Vero E6 [15] = assay: as above; conditions: 72 h
HepG2 [16] = assay: as above; conditions: 72 h
U2OS [17] = assay: as above; conditions: 72 h
Calu-3 [18] = assay: as above; conditions: 72 h
[19] = test system: A549-ACE2 infected with SARS-CoV-2; assay: morphology score (similarity to uninfected cells); higher = more like uninfected cells; conditions: 24 h
A549-ACE2 [20] = assay: phospholipidosis EC50; higher = less potent phospholipidosis inducer

C/C(=N\NC(=S)N1CCC1)c1ccccn1
drug-induced phospholipidosis [%], A549-ACE2 [1]
Conditions	0.3 µM	0.833333 µM	3.33333 µM	6.66667 µM	10 µM	30 µM
24 h	11.7	5.99	0.42	-4.61	-12.7	-11.9
48 h	–	–	–	–	-6.55	–

Conditions	SARS-CoV-2 infection rate, [13] [%]	cell count, [2] [%]	cell viability, Caco-2 [14] [%]	cell viability, Calu-3 [18] [%]	cell viability, HepG2 [16] [%]	cell viability, U2OS [17] [%]	cell viability, Vero E6 [15] [%]	morphology score, [19]
1 nM	–	–	91.8	97.3	104	101	102	–
10 nM	–	–	14.9	102	74.3	101	96.6	–
0.1 µM	104	96	–	–	–	–	–	-0.24
100 nM	–	–	17.9	56.8	5.6	59	70.5	–
0.3 µM	104	95	–	–	–	–	–	-0.09
1 µM	104	89	–	–	–	–	–	-0.19
1000 nM	–	–	39.6	38.4	11.4	28.1	31.3	–
3 µM	68	88	–	–	–	–	–	0.17
10000 nM	–	–	34	25.4	21	15.4	14.5	–

Conditions	drug sensitivity score	relative viability EC50 [µM]
Caco-2 [3]	–	0.0024
Caco-2 [8]	38.4	–
Calu-3 [7]	–	0.0907
Calu-3 [12]	18	–
HepG2 [5]	–	0.0148
HepG2 [10]	32.8	–
U2OS [6]	–	0.122
U2OS [11]	18.8	–
Vero E6 [4]	–	0.206
Vero E6 [9]	16.4	–

Cc1ccc2cc(-c3c(C)ccc(C(=O)c4c(-c5ccccc5)n(C)n(-c5ccccc5)c4=O)c3N)ccc2n1 [AMG-PERK-44]
drug-induced phospholipidosis [%], A549-ACE2 [1]
Conditions	0.3 µM	0.833333 µM	3.33333 µM	6.66667 µM	10 µM	30 µM
24 h	0.1	-2.94	-0.56	4.07	7.05	23.2
48 h	0.46	-0.23	5.6	10.1	14.1	24.3
72 h	0.916	0.798	10	13.7	17.9	33.4

Conditions	SARS-CoV-2 infection rate, [13] [%]	cell count, [2] [%]	cell viability, Caco-2 [14] [%]	cell viability, Calu-3 [18] [%]	cell viability, HepG2 [16] [%]	cell viability, U2OS [17] [%]	cell viability, Vero E6 [15] [%]	morphology score, [19]
1 nM	–	–	92.6	105	96.5	98.4	85.8	–
10 nM	–	–	90.6	102	98.4	96.7	88.9	–
100 nM	–	–	75.3	100	93	98.1	92.9	–
0.3 µM	107	96	–	–	–	–	–	-0.16
1000 nM	–	–	68.5	95.7	91.3	102	98.7	–
3 µM	86	101	–	–	–	–	–	0.09
10 µM	91	103	–	–	–	–	–	0.05
10000 nM	–	–	97.1	111	86.7	101	116	–
30 µM	51	103	–	–	–	–	–	0.57

Conditions	drug sensitivity score	relative viability EC50 [µM]
Caco-2 [3]	–	> 10
Caco-2 [8]	0	–
Calu-3 [7]	–	> 10
Calu-3 [12]	0	–
HepG2 [5]	–	> 10
HepG2 [10]	0.2	–
U2OS [6]	–	> 10
U2OS [11]	0	–
Vero E6 [4]	–	> 10
Vero E6 [9]	0	–

COc1ccc(/C=C2\CCCN=C2c2cccnc2)c(OC)c1 [GTS21]
drug-induced phospholipidosis [%], A549-ACE2 [1]
Conditions	0.3 µM	0.833333 µM	3.33333 µM	6.66667 µM	10 µM	30 µM
24 h	2.83	0.08	1.02	-1.62	5.46	7.31
48 h	4.89	-1.26	2.13	1.63	7.64	10
72 h	3.83	-0.539	2.57	1.51	7.5	15.1

Conditions	SARS-CoV-2 infection rate, [13] [%]	cell count, [2] [%]	cell viability, Caco-2 [14] [%]	cell viability, Calu-3 [18] [%]	cell viability, HepG2 [16] [%]	cell viability, U2OS [17] [%]	cell viability, Vero E6 [15] [%]	morphology score, [19]
1 nM	–	–	104	97.4	113	94.8	107	–
10 nM	–	–	97.2	94.1	101	105	100	–
100 nM	–	–	93.9	101	101	96.2	103	–
0.3 µM	108	96	–	–	–	–	–	-0.18
1000 nM	–	–	106	95.3	104	102	102	–
3 µM	99	99	–	–	–	–	–	-0.04
10 µM	86	110	–	–	–	–	–	0.24
10000 nM	–	–	95.4	97	93.7	90.9	86.3	–
30 µM	28	118	–	–	–	–	–	0.78

Conditions	drug sensitivity score	relative viability EC50 [µM]
Caco-2 [3]	–	> 10
Caco-2 [8]	0	–
Calu-3 [7]	–	> 10
Calu-3 [12]	0	–
HepG2 [5]	–	> 10
HepG2 [10]	0	–
U2OS [6]	–	> 10
U2OS [11]	0	–
Vero E6 [4]	–	> 10
Vero E6 [9]	0.1	–

CCN(CC)CCOc1ccc(C(O)(Cc2ccc(Cl)cc2)c2ccc(C)cc2)cc1 (stereo not drawn) [Triparanol]
Conditions	morphology score, 0.1 µM	morphology score, 0.3 µM	morphology score, 1 µM	morphology score, 3 µM	phospholipidosis EC50, 24 h [µM]	phospholipidosis EC50, 48 h [µM]	phospholipidosis EC50, 72 h [µM]
A549-ACE2 [20]	–	–	–	–	2.19	2.74	3.71
[19]	0.02	-0.17	0.22	0.85	–	–	–

Conditions	drug sensitivity score
Calu-3 [12]	5.5
HepG2 [10]	6.4
U2OS [11]	1.3
Vero E6 [9]	0.7

CN1C2CCC1CC(OC(c1ccccc1)c1ccc(Cl)cc1)C2 (stereo not drawn) [3-CPMT]
drug-induced phospholipidosis [%], A549-ACE2 [1]
Conditions	0.3 µM	0.833333 µM	3.33333 µM	6.66667 µM	10 µM	30 µM
24 h	4.71	3.97	55.2	83.2	94.4	114
48 h	7.06	3.72	51.9	88.1	103	126
72 h	7.88	7.28	40	85.2	102	–

Conditions	SARS-CoV-2 infection rate [%]	cell count [%]	cell viability [%]	morphology score	phospholipidosis EC50 [µM]
A549-ACE2 [20], 24 h	–	–	–	–	3.84
A549-ACE2 [20], 48 h	–	–	–	–	4.5
A549-ACE2 [20], 72 h	–	–	–	–	4.56
Caco-2 [14], 1 nM	–	–	94.2	–	–
Caco-2 [14], 10 nM	–	–	89.7	–	–
Caco-2 [14], 100 nM	–	–	91.5	–	–
Caco-2 [14], 1000 nM	–	–	94.9	–	–
Caco-2 [14], 10000 nM	–	–	76.4	–	–
Calu-3 [18], 1 nM	–	–	107	–	–
Calu-3 [18], 10 nM	–	–	109	–	–
Calu-3 [18], 100 nM	–	–	106	–	–
Calu-3 [18], 1000 nM	–	–	91.3	–	–
Calu-3 [18], 10000 nM	–	–	55.1	–	–
HepG2 [16], 1 nM	–	–	99.3	–	–
HepG2 [16], 10 nM	–	–	110	–	–
HepG2 [16], 100 nM	–	–	97.6	–	–
HepG2 [16], 1000 nM	–	–	98.6	–	–
HepG2 [16], 10000 nM	–	–	59.5	–	–
U2OS [17], 1 nM	–	–	104	–	–
U2OS [17], 10 nM	–	–	96.9	–	–
U2OS [17], 100 nM	–	–	100	–	–
U2OS [17], 1000 nM	–	–	97.1	–	–
U2OS [17], 10000 nM	–	–	72.6	–	–
Vero E6 [15], 1 nM	–	–	93.5	–	–
Vero E6 [15], 10 nM	–	–	97.3	–	–
Vero E6 [15], 100 nM	–	–	94.5	–	–
Vero E6 [15], 1000 nM	–	–	96.6	–	–
Vero E6 [15], 10000 nM	–	–	70.6	–	–
[2], 0.1 µM	–	105	–	–	–
[2], 0.3 µM	–	99	–	–	–
[2], 1 µM	–	116	–	–	–
[2], 3 µM	–	123	–	–	–
[13], 0.1 µM	108	–	–	–	–
[13], 0.3 µM	96	–	–	–	–
[13], 1 µM	74	–	–	–	–
[13], 3 µM	32	–	–	–	–
[19], 0.1 µM	–	–	–	-0.03	–
[19], 0.3 µM	–	–	–	-0.04	–
[19], 1 µM	–	–	–	0.58	–
[19], 3 µM	–	–	–	0.88	–

Conditions	drug sensitivity score	relative viability EC50 [µM]
Caco-2 [3]	–	> 10
Caco-2 [8]	1.3	–
Calu-3 [12]	3.7	–
HepG2 [10]	2.2	–
U2OS [11]	1.6	–
Vero E6 [9]	1.8	–

CCCc1cc(C)[nH]c(=O)c1CNC(=O)c1cc(-c2ccc(N3CCN(C(C)C)CC3)nc2)cc2c1cnn2C(C)C [UNC1999]
drug-induced phospholipidosis [%], A549-ACE2 [1]
Conditions	0.3 µM	0.833333 µM	3.33333 µM	6.66667 µM	10 µM	30 µM
24 h	15.7	-2.03	5.96	5.07	18.5	38.5
48 h	6.9	-2.52	5.26	6.51	17.6	36.4
72 h	1.41	-4.2	4.48	4.14	13.9	37

Conditions	SARS-CoV-2 infection rate, [13] [%]	cell count, [2] [%]	cell viability, Caco-2 [14] [%]	cell viability, Calu-3 [18] [%]	cell viability, HepG2 [16] [%]	cell viability, U2OS [17] [%]	cell viability, Vero E6 [15] [%]	morphology score, [19]
1 nM	–	–	107	94.2	109	99.1	95.6	–
10 nM	–	–	103	103	100	102	94.6	–
100 nM	–	–	97.6	96.5	93.3	99.3	95.2	–
0.3 µM	100	103	–	–	–	–	–	0.06
1000 nM	–	–	96.9	91.4	99.6	107	84.7	–
3 µM	87	109	–	–	–	–	–	0.43
10 µM	29	119	–	–	–	–	–	0.8
10000 nM	–	–	83.9	89.4	88.7	102	107	–
30 µM	13	121	–	–	–	–	–	0.6

Conditions	drug sensitivity score	relative viability EC50 [µM]
Caco-2 [3]	–	> 10
Caco-2 [8]	0.6	–
Calu-3 [7]	–	> 10
Calu-3 [12]	0.1	–
HepG2 [5]	–	> 10
HepG2 [10]	0	–
U2OS [6]	–	> 10
U2OS [11]	0	–
Vero E6 [4]	–	> 10
Vero E6 [9]	0	–
